Values quoted from earlier work in patent publication US20060270852A1, “PREPARATION OF BISQUINOLINE COMPOUNDS” (priority 2005, published 2006).
Where two headings read alike, the source gives them in different places.

Legend:
[1] = test system: falciparum and vivax malaria
[2] = not given; remark: listed apart in the source

SMILES | solubility in water | efficacy compared with chloroquine ([1]; against falciparum and vivax malaria) | tolerability compared with chloroquine ([1]; in vivo) | dissociation constant [pKa] [2] | solubility in water (at neutral and alkaline pH)
Clc1ccc2c(N3CCN(CCCN4CCN(c5ccnc6cc(Cl)ccc56)CC4)CC3)ccnc2c1 [Piperaquine phosphate] | soluble in water |  |  |  | 
Clc1ccc2c(N3CCN(CCCN4CCN(c5ccnc6cc(Cl)ccc56)CC4)CC3)ccnc2c1 [piperaquine, 1,3-Bis-[4-(7′-chloro-quinoline-4′)piperazine-1]propane] |  | at least as effective as | better tolerated than | 8.92 | only sparingly soluble in water
